Reference: patent US3996359A, “Novel stereoisomeric component A of stereoisomeric mixtures of 2'-unsymmetrical 16,17-methylenedioxy steroid 21-acylates, compositions thereof, and method of treating therewith” (AB Bofors, priority 1972, dated 1976)

Test system: rats subjected to adrenalectomy (granuloma around implanted cotton wads)
Assay: granulom test (cotton-pellet test) on rats subjected to adrenalectomy: granuloma growth, thymus weight, body weight increase
Type: in vivo, rat (Sprague-Dawley)
Details: for Dose required to obtain 50% inhibition of Granuloma growth: Table 3, adrenalectomized young male Sprague-Dawley rats, topical in implanted cotton wads, day 8; for Dose required to obtain 25% inhibition of Body weight Increase / Dose required to obtain 50% inhibition of Thymus weight / ED25 body weight increase inhibition / ED50 thymus weight inhibition / Therapeutic ratio body weight/granuloma / Therapeutic ratio thymus/granuloma / decrease of body weight growth at the dose giving 50% inhibition of granulom growth / decrease of thymus weight at the dose giving 50% inhibition of granulom growth: rat, in vivo; for Dose required to obtain 25% inhibition of Body weight Increase / Dose required to obtain 50% inhibition of Thymus weight: 11520 min
Text: In the following this active stereoisomeric component will always be designated B. As regards the steroids referred to in connection with the present invention the stereoisomeric mixture as well as the individual stereoisomeric components A and B have been investigated with regard to antiinflammatory activity in granulom test on rats subjected to adrenalectomy. The experimental procedure used corresponds largely to that described by G. Engelhardt: Arzneimittel-Forschung, 13, p. 588, 1963. According to this procedure the test substances are applied topically in the implanted cottom wads. It is thereby possible to study the local antiinflammatory effect in granulomas and also systemic effects in the form of retrogression of thymus and inhibition of bodyweight growth.
Young male rats of the Sprague-Dawley strain weighing about 110-130 g were subjected to adrenalectomy under ether narcosis. Two sterilized cottom wads of each about 6 mg were implanted simultaneously subcutaneously on the lateral side of the spinal. After awakening the animals were stored 5 per cage and were supplied with normal food and 1% sodium chloride solution as drinking water. On the eighth test day the animals were sacrificed by ether narcosis. The granuloma formed around the cotton wads were carefully recovered and thymus and body weights were measured. The two granuloma from each animal were dried over night at 80° C and weighed. After subtraction of the initial weight of the cotton wads the weight increase was used as a measure of the granulom growth.
The test substances were used dissolved in ethyl acetate. Under aseptic conditions 0.05 ml of said solutions were injected into each of the cotton wads, whereafter the solvent was allowed to evaporate in the desiccator. Normally 3 concentrations of each test substance with the standard doses 3.3, 30 and 270 γ/animal were investigated. Each test group normally comprised 10 rats. The cotton wads of the control group were injected with only ethyl acetate, but were in other respects treated in the same way. When considering the effects of the test substances the average values of granulom growth, thymus weight and body weight increase day 0-8 were measured in each group in absolute figures and in % of the corresponding figure of the control group. Dose-response curves were drafted and used for estimating the doses giving 50 % reduction of granulom growth and of thymus weight and 25 % decrease of body weight increase.
The following Table 4 discloses the results of the cotton-pellet test hereinbefore described, giving in addition figures for the therapeutic ratios, that is, the ratios of the ED50 for thymus weight inhibition divided by the ED50 for granuloma formation inhibition, and the ED25 for body weight increase inhibition over the ED50 for granuloma formation inhibition. As will be recognized, the higher the number for the therapeutic ratio, the more favorable the therapeutic ratio. […] As will be noted for the table, the therapeutic ratio for thymus over granuloma for the Component A esters is 4.2, 7.1, 4.5, 2.6, 2.2, 1.7, 2.5 and 1.7 times as good as it is for the corresponding Component B ester isomer, whereas the therapeutic ratio for the Component A ester isomer as far as body weight is granuloma 2.7, 3.3, 9.8, 6.4, 2.3, 2.8, 3.3 and 2.8 times as favorable as for the corresponding Component B ester isomer.

For `CC1O[C@@H]2C[C@H]3[C@@H]4CCC5=CC(=O)C=C[C@]5(C)[C@@]4(F)[C@@H](O)C[C@]3(C)[C@]2(C(=O)CO)O1` (stereo partly drawn) [1 A+B], the “Dose required to obtain 50% inhibition of Granuloma growth” value was 120 γ/animal, the “Dose required to obtain 25% inhibition of Body weight Increase” value was > 270 γ/animal and the “Dose required to obtain 50% inhibition of Thymus weight” value was 270 γ/animal.

With `CCCC1O[C@@H]2C[C@H]3[C@@H]4CCC5=CC(=O)C=C[C@]5(C)[C@@]4(F)[C@@H](O)C[C@]3(C)[C@]2(C(=O)COC(=O)c2cccnc2)O1` (single isomer, unassigned) [21 A] the “Dose required to obtain 50% inhibition of Granuloma growth” value was < 3 γ/animal, the “Dose required to obtain 25% inhibition of Body weight Increase” value was 70 γ/animal and the “Dose required to obtain 50% inhibition of Thymus weight” value was 70 γ/animal.

With `CCCC1O[C@@H]2C[C@H]3[C@@H]4C[C@H](F)C5=CC(=O)C=C[C@]5(C)[C@@]4(F)[C@@H](O)C[C@]3(C)[C@]2(C(=O)CO)O1` (single isomer, unassigned) [8 B] the “Dose required to obtain 50% inhibition of Granuloma growth” value was 4 γ/animal, the “Dose required to obtain 25% inhibition of Body weight Increase” value was 50 γ/animal and the “Dose required to obtain 50% inhibition of Thymus weight” value was 10 γ/animal.

For `CCCCC(=O)OCC(=O)[C@@]12OC(C)O[C@@H]1C[C@H]1[C@@H]3CCC4=CC(=O)C=C[C@]4(C)[C@@]3(F)[C@@H](O)C[C@@]12C` (single isomer, unassigned) [18 B], the “Dose required to obtain 50% inhibition of Granuloma growth” value was < 3 γ/animal, the ED25 body weight increase inhibition was 10 µg/animal and the ED50 thymus weight inhibition was 10 µg/animal. For the same molecule, the “Therapeutic ratio body weight/granuloma” value was greater than 3.3, the Therapeutic ratio thymus/granuloma was greater than 3.3 and the “Dose required to obtain 25% inhibition of Body weight Increase” value was 10 γ/animal. For the same molecule, the “Dose required to obtain 50% inhibition of Thymus weight” value was 10 γ/animal.

For `CC1(C)O[C@@H]2C[C@H]3[C@@H]4C[C@H](F)C5=CC(=O)C=C[C@]5(C)[C@@]4(F)[C@@H](O)C[C@]3(C)[C@]2(C(=O)CO)O1` [Fluocinolone acetonide, reference compound], the “Dose required to obtain 50% inhibition of Granuloma growth” value was ~50 γ/animal, the “decrease of body weight growth at the dose giving 50% inhibition of granulom growth” value was “heavy decrease” and the “decrease of thymus weight at the dose giving 50% inhibition of granulom growth” value was “heavy decrease”. For the same molecule, the “Dose required to obtain 25% inhibition of Body weight Increase” value was 20 γ/animal and the “Dose required to obtain 50% inhibition of Thymus weight” value was 14 γ/animal.

For `CCCC1OC2CC3C4CC(F)C5=CC(=O)C=CC5(C)C4(F)C(O)CC3(C)C2(C(=O)CO)O1` (mixture of isomers) [8 A+B], the “Dose required to obtain 50% inhibition of Granuloma growth” value was 5 γ/animal, the “Dose required to obtain 25% inhibition of Body weight Increase” value was 50 γ/animal and the “Dose required to obtain 50% inhibition of Thymus weight” value was 10 γ/animal.

For `CCC1O[C@@H]2C[C@H]3[C@@H]4CCC5=CC(=O)C=C[C@]5(C)[C@@]4(F)[C@@H](O)C[C@]3(C)[C@]2(C(=O)CO)O1` (single isomer, unassigned) [2 B], the “Dose required to obtain 50% inhibition of Granuloma growth” value was 10 γ/animal, the “Dose required to obtain 25% inhibition of Body weight Increase” value was 100 γ/animal and the “Dose required to obtain 50% inhibition of Thymus weight” value was 60 γ/animal.

With `CC1O[C@@H]2C[C@H]3[C@@H]4CCC5=CC(=O)C=C[C@]5(C)[C@@]4(F)[C@@H](O)C[C@]3(C)[C@]2(C(=O)CO)O1` (single isomer, unassigned) [1 B] the “Dose required to obtain 50% inhibition of Granuloma growth” value was 30 γ/animal, the “Dose required to obtain 25% inhibition of Body weight Increase” value was 30 γ/animal and the “Dose required to obtain 50% inhibition of Thymus weight” value was 50 γ/animal.

In the case of `CCCC1O[C@@H]2C[C@H]3[C@@H]4CCC5=CC(=O)C=C[C@]5(C)[C@H]4[C@@H](O)C[C@]3(C)[C@]2(C(=O)CO)O1` (stereo partly drawn) [12 A+B], the “Dose required to obtain 50% inhibition of Granuloma growth” value is reported as 100 γ/animal, the “Dose required to obtain 25% inhibition of Body weight Increase” value is reported as 80 γ/animal and the “Dose required to obtain 50% inhibition of Thymus weight” value is reported as 80 γ/animal.

In the case of `CCCCC1OC2CC3C4CCC5=CC(=O)C=CC5(C)C4(F)C(O)CC3(C)C2(C(=O)CO)O1` (mixture of isomers) [4 A+B], the “Dose required to obtain 50% inhibition of Granuloma growth” value is reported as < 3 γ/animal, the “Dose required to obtain 25% inhibition of Body weight Increase” value is reported as 170 γ/animal and the “Dose required to obtain 50% inhibition of Thymus weight” value is reported as 70 γ/animal.

`CCCC1O[C@@H]2C[C@H]3[C@@H]4CCC5=CC(=O)C=C[C@]5(C)[C@@]4(F)[C@@H](O)C[C@]3(C)[C@]2(C(=O)COC(=O)c2cc3ccccc3o2)O1` (single isomer, unassigned) [20 A] was tested, and the “Dose required to obtain 50% inhibition of Granuloma growth” value was < 3 γ/animal, the ED25 body weight increase inhibition was 50 µg/animal and the ED50 thymus weight inhibition was 90 µg/animal. The “Therapeutic ratio body weight/granuloma” value was greater than 16.7, the Therapeutic ratio thymus/granuloma was greater than 30.0 and the “Dose required to obtain 25% inhibition of Body weight Increase” value was 50 γ/animal. The “Dose required to obtain 50% inhibition of Thymus weight” value was 90 γ/animal.

In the case of `CCCC1O[C@@H]2C[C@H]3[C@@H]4CCC5=CC(=O)C=C[C@]5(C)[C@H]4[C@@H](O)C[C@]3(C)[C@]2(C(=O)COC(C)=O)O1` (single isomer, unassigned) [27 A], the “Dose required to obtain 50% inhibition of Granuloma growth” value is reported as < 3 γ/animal, the ED25 body weight increase inhibition is reported as 100 µg/animal and the ED50 thymus weight inhibition is reported as 100 µg/animal. For the same molecule, the “Therapeutic ratio body weight/granuloma” value was greater than 33.3, the Therapeutic ratio thymus/granuloma was greater than 33.3 and the “Dose required to obtain 25% inhibition of Body weight Increase” value was 100 γ/animal. For the same molecule, the “Dose required to obtain 50% inhibition of Thymus weight” value was 100 γ/animal.

With `CCCC1OC2CC3C4CCC5=CC(=O)C=CC5(C)C4(F)C(O)CC3(C)C2(C(=O)CO)O1` (mixture of isomers) [3 A+B] the “Dose required to obtain 50% inhibition of Granuloma growth” value was 10 γ/animal, the “Dose required to obtain 25% inhibition of Body weight Increase” value was > 30 γ/animal and the “Dose required to obtain 50% inhibition of Thymus weight” value was > 30 γ/animal.

With `CCCC1O[C@@H]2C[C@H]3[C@@H]4C[C@H](F)C5=CC(=O)C=C[C@]5(C)[C@@]4(F)[C@@H](O)C[C@]3(C)[C@]2(C(=O)COC(=O)c2cc3ccccc3o2)O1` (single isomer, unassigned) [25 A] the “Dose required to obtain 50% inhibition of Granuloma growth” value was < 3 γ/animal, the ED25 body weight increase inhibition was 20 µg/animal and the ED50 thymus weight inhibition was 15 µg/animal. For the same molecule, the “Therapeutic ratio body weight/granuloma” value was greater than 6.7, the Therapeutic ratio thymus/granuloma was greater than 5.0 and the “Dose required to obtain 25% inhibition of Body weight Increase” value was 20 γ/animal. For the same molecule, the “Dose required to obtain 50% inhibition of Thymus weight” value was 15 γ/animal.

`CCCC1O[C@@H]2C[C@H]3[C@@H]4CCC5=CC(=O)C=C[C@]5(C)[C@H]4[C@@H](O)C[C@]3(C)[C@]2(C(=O)COC(=O)c2cc3ccccc3o2)O1` (single isomer, unassigned) [28 B] was tested, and the ED25 body weight increase inhibition was 35 µg/animal, the ED50 thymus weight inhibition was 60 µg/animal and the “Therapeutic ratio body weight/granuloma” value was greater than 11.7. It also gave a Therapeutic ratio thymus/granuloma greater than 20.0.

In the case of `CCCCC(=O)OCC(=O)C12OC(CCC)OC1CC1C3CCC4=CC(=O)C=CC4(C)C3(F)C(O)CC12C` (mixture of isomers) [22 A+B], the “Dose required to obtain 50% inhibition of Granuloma growth” value is reported as 10 γ/animal, the “Dose required to obtain 25% inhibition of Body weight Increase” value is reported as 30 γ/animal and the “Dose required to obtain 50% inhibition of Thymus weight” value is reported as 50 γ/animal.

In the case of `CCCC1O[C@@H]2C[C@H]3[C@@H]4CCC5=CC(=O)C=C[C@]5(C)[C@@]4(F)[C@@H](O)C[C@]3(C)[C@]2(C(=O)CO)O1` (single isomer, unassigned) [3 B], the “Dose required to obtain 50% inhibition of Granuloma growth” value is reported as 3 γ/animal, the “Dose required to obtain 25% inhibition of Body weight Increase” value is reported as 100 γ/animal and the “Dose required to obtain 50% inhibition of Thymus weight” value is reported as 17 γ/animal.

With `CC1(C)O[C@@H]2C[C@H]3[C@@H]4CCC5=CC(=O)C=C[C@]5(C)[C@@]4(F)[C@@H](O)C[C@]3(C)[C@]2(C(=O)CO)O1` [Triamcinolone acetonide, reference compound] the “decrease of body weight growth at the dose giving 50% inhibition of granulom growth” value was “heavy decrease”, the “decrease of thymus weight at the dose giving 50% inhibition of granulom growth” value was “heavy decrease” and the “Dose required to obtain 25% inhibition of Body weight Increase” value was 100 γ/animal. The “Dose required to obtain 50% inhibition of Thymus weight” value was 70 γ/animal.

`CCCCCC1O[C@@H]2C[C@H]3[C@@H]4CCC5=CC(=O)C=C[C@]5(C)[C@@]4(F)[C@@H](O)C[C@]3(C)[C@]2(C(=O)CO)O1` (single isomer, unassigned) [5 A] was tested, and the “Dose required to obtain 50% inhibition of Granuloma growth” value was 30 γ/animal, the “Dose required to obtain 25% inhibition of Body weight Increase” value was > 270 γ/animal and the “Dose required to obtain 50% inhibition of Thymus weight” value was 90 γ/animal.

With `CCCC1O[C@@H]2C[C@H]3[C@@H]4CCC5=CC(=O)C=C[C@]5(C)[C@H]4[C@@H](O)C[C@]3(C)[C@]2(C(=O)COC(C)=O)O1` (single isomer, unassigned) [27 B] the “Dose required to obtain 50% inhibition of Granuloma growth” value was < 3 γ/animal, the ED25 body weight increase inhibition was 35 µg/animal and the ED50 thymus weight inhibition was 60 µg/animal. For the same molecule, the “Therapeutic ratio body weight/granuloma” value was greater than 11.7, the Therapeutic ratio thymus/granuloma was greater than 20.0 and the “Dose required to obtain 25% inhibition of Body weight Increase” value was 35 γ/animal. For the same molecule, the “Dose required to obtain 50% inhibition of Thymus weight” value was 60 γ/animal.
